Data on 11 molecules can be found in publication PMC6171423, “Benzofuran–appended 4-aminoquinazoline hybrids as epidermal growth factor receptor tyrosine kinase inhibitors: synthesis, biological evaluation and molecular docking studies” (Journal of Enzyme Inhibition and Medicinal Chemistry, 2018).

Like-named read-outs stand apart in the source and are kept apart here.

Series [1] relates to hepatocellular carcinoma (C3A; HepG2/C3A) cells. Description: cells. Particulars: Homo sapiens, 48 h.
Procedure: (§5) The cytotoxic activities of the compounds were screened against the C3A/HepG2 human liver cells, human colorectal tumor (Caco-2) cells, the human lung carcinoma (A549) and the cervical cancer (HeLa) cells. The lethal concentration was determined using the 3–(4,5-dimethylthiazol)-2,5-diphenyl tetrazolium bromide (MTT) assay previously developed by Mosmann[20]. The cells were maintained in Dubelsco minimal essential medium (DMEM, Highveld Biological, South Africa) supplemented with 10% fetal calf serum (Adcock-Ingram, Midrand, South Africa) and sodium pyruvate for C3A liver cells. Cell suspensions were prepared from confluent monolayer cultures and plated at a density of 0.1 × 10^6 cells into each well of 96-well microtitre plates. For cell attachment, plates were incubated for 24 h at 37 °C in a 5% CO2 incubator prior to the exposure. The compounds were dissolved in DMSO (5 mg/mL) and appropriate dilutions were prepared, added to the wells and incubated for 48 h. Doxorubicin hydrochloride (Pfizer Laboratories, Sandton, South Africa) was used as a positive control while DMSO was the negative control. After incubation for 48 h, the wells were rinsed with 150 µL of phosphate buffered saline PBS (Sigma-Aldrich, GmBH, Schnelldorf, Germany) and 200 µL of fresh medium was dispensed into the wells. MTT was dissolved in PBS (30 µL) then added to each well and the contents were incubated for 4 h at 37 °C. The medium was removed and MTT formazan crystals were dissolved in 50 µL DMSO. The amount of MTT reduction was measured immediately by detecting the absorbance using a BioTek microplate reader (BioTek Synergy, Analytical and Diagnostic Products, Johannesburg, South Africa) at a wavelength of 570 nm. Each dilution of the test sample was assayed in quadruplicate and the experiments were repeated three times. The percentage of cell viability and the LC50 values for each compound tested were calculated as described before[10].
Series [2] has as its system human lung cancer (A549) cells. The series is described as follows: cells. The conditions noted are these: A549, 48 h, read-out: Cancer cells LC50 A549.
Procedure: as §5
The test system of series [3] is cervical cancer (HeLa) cells. The series is described as follows: cells. The conditions noted are these: Homo sapiens, 48 h, read-out: Cancer cells LC50 HeLa.
Procedure: as §5
Series [4] has as its target human EGFR (EGFR-TK) (Homo sapiens, UniProt P00533). Description: Inhibition of EGFR-TK (ELISA). For orientation: ELISA stands for enzyme-linked immunosorbent assay.
Series [5] concerns colorectal adenocarcinoma (Caco-2) cells. The series is described as follows: cells. The conditions noted are these: Homo sapiens, Caco-2, 48 h, read-out: Cancer cells LC50 Caco-2.
Procedure: as §5
Series [6] has as its system C3A cells. Description: Annexin V/PI apoptosis assay by flow cytometry, C3A. The format is cell-based, human. Particulars: 5 and 12.5 µM, 24 h. How it is done: (§1) Apoptotic cells were quantified using flow cytometry. The C3A or Caco-2 cells were cultured in 24 well plates and each was then treated with compound 10d or 10j at concentrations 5, 12.5 and 25 µM against doxorubicin hydrochloride (0.20 µM) as a reference standard, respectively. After the cells were incubated for 24 h, both treated and untreated cells were harvested, washed two times with ice PBS and then adjusted at a density of 1 x 10^6 cells/sample. Cells were harvested and transferred into plastic flow tubes (BD Biosciences, South Africa). The cells were, in turn, stained with Annexin-V-FUOS staining kit (Roche, Mannheim, Germany) according to the manufacturer’s instructions. The cells were analyzed using Becton, Dickinson and Company FACS Accuri flow cytometer.
(§2) We selected compounds 10d and 10j to evaluate whether they induce apoptosis in the C3A and Caco-2 cell lines against doxorubicin hydrochloride as a reference standard, respectively. The population of apoptotic cells was determined by means of Annexin-V and propium iodide (PI) double staining by flow cytometry, which is a useful tool for evaluation of molecular and morphological events that take place during cell death and cell proliferation. […]
On the technique in general: A flow cytometer gives signals particle by particle.

The subject of series [7] is Human Caspase-3 (Asp175) activity in C3A cells. Description: Caspase-3 colorimetric assay, C3A. The conditions noted are these: 24 h, Gefitinib as reference. Type of series: cell-based. Here is the method: (§3) Caspase-3 activity was detected by means of Caspase-3 Colorimetric Assay Kit (Abcam, Cambridge, MA, USA). The cells were cultured in 24 well plates and treated for 24 h. The cells were then washed with PBS buffer and lysed on ice. The experiments were carried out according to the manufacturer’s instructions. Optical density was measured at absorbance of 450 nm using the BioTek microplate reader. The concentration of active Caspase-3 (Asp 175) were measured in duplicates and interpolated from the active caspase-3 (Asp 175) standard curve and corrected for sample dilution.
(§4) A major biochemical feature of apoptosis is the activation of caspases (caspase-2, -3, -6, -7, -8, -9, and -10), which play a central role in the morphological changes associated with apoptosis. Activation of caspase-3, for example, is critically important for the induction of apoptotic pathways. Consequently, we evaluated compounds 10d and 10j for potential to induce caspase-3 activation in C3A and Caco-2 cells using Gefitinib as a reference standard (Figure 4).

The subject of series [8] is Caco-2 cells. The series is described as follows: Annexin V/PI apoptosis assay by flow cytometry, Caco-2. The format is cell-based, human. Particulars: 5 and 12.5 µM, 24 h. Here is the method:
as §1, §2

Series [9] has as its system Human Caspase-3 (Asp175) activity in Caco-2 cells. The series is described as follows: Caspase-3 colorimetric assay, Caco-2. The format is cell-based. The conditions noted are these: 24 h, Gefitinib as reference. Here is the method: as §3, §4
For series [10], the system named is hepatocellular carcinoma (C3A; HepG2/C3A) cells. The conditions noted are these: human, 48 h.
Procedure: as §5
Setting [11] is: read-out: Cancer cells LC50 C3A.
The mark [12] stands for this setting: read-out: IC50 against EGFR-TK, ELISA, purified EGFR.

Sequence of human EGFR (EGFR-TK) (P00533 25-1210): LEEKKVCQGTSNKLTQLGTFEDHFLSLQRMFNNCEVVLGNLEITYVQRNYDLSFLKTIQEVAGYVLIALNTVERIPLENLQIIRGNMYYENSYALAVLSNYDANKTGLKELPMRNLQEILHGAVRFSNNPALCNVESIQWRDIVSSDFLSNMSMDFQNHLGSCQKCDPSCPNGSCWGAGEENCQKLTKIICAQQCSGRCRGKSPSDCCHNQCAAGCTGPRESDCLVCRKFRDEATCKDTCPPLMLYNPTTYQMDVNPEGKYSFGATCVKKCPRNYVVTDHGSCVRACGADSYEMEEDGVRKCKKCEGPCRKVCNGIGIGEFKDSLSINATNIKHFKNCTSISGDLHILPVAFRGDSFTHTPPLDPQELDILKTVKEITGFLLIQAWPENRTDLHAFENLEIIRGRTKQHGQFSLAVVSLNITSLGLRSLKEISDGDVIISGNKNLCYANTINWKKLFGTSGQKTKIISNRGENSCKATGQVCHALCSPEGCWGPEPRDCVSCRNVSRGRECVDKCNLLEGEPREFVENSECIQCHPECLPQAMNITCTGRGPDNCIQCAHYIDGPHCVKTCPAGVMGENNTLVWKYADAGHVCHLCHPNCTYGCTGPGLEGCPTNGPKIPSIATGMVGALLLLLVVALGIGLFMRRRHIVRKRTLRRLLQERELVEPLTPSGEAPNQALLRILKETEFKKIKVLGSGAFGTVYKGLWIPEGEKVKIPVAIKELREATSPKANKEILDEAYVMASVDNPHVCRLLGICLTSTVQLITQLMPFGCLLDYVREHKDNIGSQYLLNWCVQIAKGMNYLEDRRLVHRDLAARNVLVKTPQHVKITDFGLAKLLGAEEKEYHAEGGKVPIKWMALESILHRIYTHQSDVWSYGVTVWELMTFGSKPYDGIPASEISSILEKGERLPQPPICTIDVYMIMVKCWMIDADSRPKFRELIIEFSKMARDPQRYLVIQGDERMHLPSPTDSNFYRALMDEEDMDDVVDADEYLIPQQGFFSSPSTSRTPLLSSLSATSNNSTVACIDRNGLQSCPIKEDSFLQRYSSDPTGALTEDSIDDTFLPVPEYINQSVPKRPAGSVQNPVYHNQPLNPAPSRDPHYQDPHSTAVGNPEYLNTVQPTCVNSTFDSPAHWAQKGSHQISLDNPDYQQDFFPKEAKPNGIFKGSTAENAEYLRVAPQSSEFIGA

The IC50 is the concentration at which inhibition is half-maximal. As to `Fc1ccc(-c2nc(Nc3cc(Br)cc4cc(-c5ccccc5)oc34)c3cc(Br)ccc3n2)cc1` [Compound 10a, 6-Bromo-N-(5-bromo-2-phenylbenzofuran-7-yl)-2–(4-fluorophenyl)quinazolin-4-amine], the CC50 in series [1] (setting [11]) worked out at 81 ± 0.03 µM; in [2], 64.7 ± 0.11 µM; in [3], 17.6 ± 0.39 µM; in series [5] it was 96.3 ± 0.1 µM. In addition, the IC50 in [4] was determined as 0.1113 ± 0.00042 µM.
As for `Fc1ccc(-c2nc(Nc3cc(Br)cc4cc(-c5cccc(F)c5)oc34)c3cc(Br)ccc3n2)cc1` [Compound 10b, 6-Bromo-N-(5-bromo-2–(3-fluorophenyl)benzofuran-7-yl)-2–(4-fluorophenyl)quinazolin-4-amine], the CC50 stood at 90.1 ± 0.02 µM in [1] (setting [11]), 54.3 ± 0.19 µM in series [2], 47 ± 0.38 µM in series [3] and 83.9 ± 0.07 µM in series [5]. Also, in series [4] (setting [12]), the IC50 stood at 0.1225 ± 0.0005 µM.
Take `Fc1ccc(-c2nc(Nc3cc(Br)cc4cc(-c5ccc(F)cc5)oc34)c3cc(Br)ccc3n2)cc1` [Compound 10c, 6-Bromo-N-(5-bromo-2–(4-fluorophenyl)benzofuran-7-yl)-2–(4-fluorophenyl)quinazolin-4-amine]: the CC50 is more than 100 µM in series [1] (setting [11]), 52.6 ± 0.2 µM in [2], 11.4 ± 0.56 µM in series [3] and 98.8 ± 0.02 µM in series [5]. Further, the IC50 in [4] turned out to be 0.0522 ± 0.00018 µM.
For `Fc1ccc(-c2nc(Nc3cc(Br)cc4cc(-c5cccc(Cl)c5)oc34)c3cc(Br)ccc3n2)cc1` [Compound 10d, 6-Bromo-N-(5-bromo-2–(3-chlorophenyl)benzofuran-7-yl)-2–(4-fluorophenyl)quinazolin-4-amine], the induction of apoptosis entry in [6] was “induced apoptosis”. For the same molecule, the CC50 in series [1] (setting [11]) stood at 9 ± 0.01 µM; in [2], 65.1 ± 0.12 µM; in series [3], 22.1 ± 1.1 µM; in series [5], 47.7 ± 0.01 µM. The caspase-3 activation result in series [7] is recorded as “induce apoptosis through activation of caspase-3”. Besides, the IC50 in [4] (setting [12]) stood at 0.0293 ± 2e-05 µM.
As to `Fc1ccc(-c2nc(Nc3cc(Br)cc4cc(-c5ccc(OC(F)(F)F)cc5)oc34)c3cc(Br)ccc3n2)cc1` [Compound 10e, 6-Bromo-N-(5-bromo-2–(4-(trifluoromethoxy)phenyl)benzofuran-7-yl)-2–(4-fluorophenyl) quinazolin-4-amine], the CC50 in series [1] (setting [11]) was more than 100 µM; in series [2], 97.6 ± 0.07 µM; in series [3], 23.4 ± 0.49 µM; in [5] it was 65.2 ± 0.1 µM. Further, in series [4] (setting [12]), the IC50 was determined as 0.0311 ± 0.00012 µM.
In the case of `Clc1ccc(-c2nc(Nc3cc(Br)cc4cc(-c5ccccc5)oc34)c3cc(Br)ccc3n2)cc1` [Compound 10f, 6-Bromo-N-(5-bromo-2-phenylbenzofuran-7-yl)-2–(4-chlorophenyl)quinazolin-4-amine], the CC50 in series [1] (setting [11]) was determined as 73.9 ± 0.02 µM; in series [2], 48 ± 0.1 µM; in series [3], 15.4 ± 0.45 µM; in series [5] it was 75 ± 0.02 µM.
On to `Fc1cccc(-c2cc3cc(Br)cc(Nc4nc(-c5ccc(Cl)cc5)nc5ccc(Br)cc45)c3o2)c1` [Compound 10g, 6-Bromo-N-(5-bromo-2–(3-fluorophenyl)benzofuran-7-yl)-2–(4-chlorophenyl)quinazolin-4-amine], for which the CC50 in series [1] (setting [11]) was 79.1 ± 0.01 µM; in [2] it was 78.5 ± 0.15 µM; in [3], 53.5 ± 4.46 µM; in series [5], 94.4 ± 0.02 µM. Further, the IC50 in series [4] (setting [12]) was 0.1329 ± 0.00055 µM.
On the same counts, the results for `Fc1ccc(-c2cc3cc(Br)cc(Nc4nc(-c5ccc(Cl)cc5)nc5ccc(Br)cc45)c3o2)cc1` [Compound 10h, 6-Bromo-N-(5-bromo-2–(4-fluorophenyl)benzofuran-7-yl)-2–(4-chlorophenyl)quinazolin-4-amine] are more than 100 µM, 74.1 ± 0.21 µM, 28.6 ± 1.12 µM, 49.1 ± 0.01 µM and 0.1257 ± 0.00052 µM.
The like results for `Clc1ccc(-c2nc(Nc3cc(Br)cc4cc(-c5cccc(Cl)c5)oc34)c3cc(Br)ccc3n2)cc1` [Compound 10i, 6-Bromo-N-(5-bromo-2–(3-chlorophenyl)benzofuran-7-yl)-2–(4-chlorophenyl)quinazolin-4-amine] were, in that order, 68.2 ± 0.02 µM, 86.6 ± 0.16 µM, 75.1 ± 5.25 µM, 33.5 ± 0.1 µM and 0.0902 ± 0.00034 µM.
As to `FC(F)(F)Oc1ccc(-c2cc3cc(Br)cc(Nc4nc(-c5ccc(Cl)cc5)nc5ccc(Br)cc45)c3o2)cc1` [Compound 10j, 6-Bromo-N-(5-bromo-2–(4-(trifluoromethoxy)phenyl)benzofuran-7-yl)-2–(4-chlorophenyl) quinazoline-4-amine], the CC50 was more than 100 µM in [1] (setting [11]), 47.4 ± 0.07 µM in [2], 28.1 ± 0.79 µM in series [3] and 18.4 ± 0.07 µM in series [5]. Further, the induction of apoptosis result in series [8] is listed as “induced apoptosis”. Further, the IC50 in series [4] (setting [12]) was 0.0615 ± 1e-05 µM. In addition, the caspase-3 activation result in series [9] was “induce apoptosis through activation of caspase-3”.
`COc1cc2ncnc(Nc3ccc(F)c(Cl)c3)c2cc1OCCCN1CCOCC1` [Gefitinib, reference compound]: the CC50 came out at 5 ± 0.04 µM in series [10]; 5.01 µM in [1] (read-out: Cancer cells LC50 C3A, MTT, 48 h, C3A); 51.3 ± 0.17 µM in series [2]; 98.8 ± 0.56 µM in [3].
